From patent US20230117592A1 (SRI International, priority 2019, published 2023) come the findings set out here.

The target of one experiment is T1, 5-LOX (Homo sapiens, UniProt P09917).
T1 sequence (P09917 1-674): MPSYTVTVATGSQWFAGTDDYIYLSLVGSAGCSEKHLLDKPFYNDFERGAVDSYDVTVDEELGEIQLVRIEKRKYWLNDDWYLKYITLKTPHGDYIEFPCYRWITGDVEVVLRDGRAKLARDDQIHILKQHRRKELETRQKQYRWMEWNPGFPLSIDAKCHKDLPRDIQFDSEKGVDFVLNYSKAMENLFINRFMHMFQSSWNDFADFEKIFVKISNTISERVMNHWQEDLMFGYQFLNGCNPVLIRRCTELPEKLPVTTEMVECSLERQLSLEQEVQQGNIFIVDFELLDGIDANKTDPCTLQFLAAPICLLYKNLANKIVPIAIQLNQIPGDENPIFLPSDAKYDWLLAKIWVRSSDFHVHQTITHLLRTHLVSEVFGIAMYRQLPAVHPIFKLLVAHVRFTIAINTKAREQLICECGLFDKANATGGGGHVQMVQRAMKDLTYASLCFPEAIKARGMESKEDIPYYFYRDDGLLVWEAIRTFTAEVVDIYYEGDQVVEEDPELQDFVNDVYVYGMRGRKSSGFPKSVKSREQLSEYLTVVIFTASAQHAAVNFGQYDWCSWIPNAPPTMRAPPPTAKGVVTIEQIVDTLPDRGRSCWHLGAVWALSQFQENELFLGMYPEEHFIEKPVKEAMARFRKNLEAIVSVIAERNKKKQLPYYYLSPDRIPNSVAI
The experiment is described as follows: 5-LOX fluorescent assay (in vitro lipoxygenase inhibition). The class given is biochemical. Particulars: recombinant 5-LOX cell lysate, 20 μM AA, DHR123 fluorescence; several values in a cell = repeat determinations; read-out: IC50 (μM) values for in vitro lipoxygenase inhibition, 5-LOX. Summed up:
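Recombinant human 5-LOX cell lysate pre-incubated 15 min with inhibitor in 50 mM Tris pH 7.5, 0.1 mM EDTA, 0.3 mM CaCl2. Reaction started with 20 μM arachidonic acid plus 100 μM ATP, with 1 μM DHR123 as fluorescent probe. IC50 from percent inhibition per dose via 4-parameter logistic or sigmoidal dose-response fit.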

For the next experiment, the target named is T2, 12-LOX (Homo sapiens, UniProt P18054).
T2 sequence (P18054 1-663): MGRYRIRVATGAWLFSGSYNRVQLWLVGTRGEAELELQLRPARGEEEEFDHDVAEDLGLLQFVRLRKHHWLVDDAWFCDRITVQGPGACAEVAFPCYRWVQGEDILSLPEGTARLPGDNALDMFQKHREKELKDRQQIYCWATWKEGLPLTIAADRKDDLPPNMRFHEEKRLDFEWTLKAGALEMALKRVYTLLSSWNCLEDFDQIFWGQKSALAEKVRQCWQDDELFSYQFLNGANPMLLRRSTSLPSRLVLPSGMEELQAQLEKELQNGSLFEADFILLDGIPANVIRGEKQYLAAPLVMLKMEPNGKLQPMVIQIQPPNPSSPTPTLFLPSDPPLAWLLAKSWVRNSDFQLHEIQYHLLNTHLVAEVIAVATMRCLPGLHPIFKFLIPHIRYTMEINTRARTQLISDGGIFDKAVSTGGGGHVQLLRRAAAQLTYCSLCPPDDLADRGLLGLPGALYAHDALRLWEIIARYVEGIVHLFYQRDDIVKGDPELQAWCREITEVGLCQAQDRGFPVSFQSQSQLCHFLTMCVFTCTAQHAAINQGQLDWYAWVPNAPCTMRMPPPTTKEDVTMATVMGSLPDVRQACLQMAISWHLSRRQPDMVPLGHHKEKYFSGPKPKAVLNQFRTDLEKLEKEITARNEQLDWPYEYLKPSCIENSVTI
The experiment is described as follows: 12-LOX fluorescent assay (in vitro lipoxygenase inhibition). Type of experiment: biochemical. To be noted: 100 nM recombinant 12-LOX, 20 μM AA, DHR123 fluorescence; several values in a cell = repeat determinations; read-out: IC50 (μM) values for in vitro lipoxygenase inhibition, 12-LOX. Summed up:
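Fluorescent assay in 50 mM Tris pH 7.5, 0.05% Tween-20, with 100 nM recombinant 12-LOX preincubated 15 min with inhibitor. Reaction was started with 20 μM arachidonic acid substrate and 1 μM DHR123. Percent inhibition per dose was fitted by 4-parameter logistic or sigmoidal dose-response for IC50.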

Values joined by “and” are separate entries in the source; they are usually repeats but may differ in a detail not shown here. Equal entries are not always repeated.

Usually IC50 stands for the point on the concentration scale where inhibition reaches its midpoint. As for `FC(F)(F)c1cc(NC2(c3ccccc3)COC2)ccc1NCCN1CCOCC1` [SS20308-0317-01, N^1-(2-morpholinoethyl)-N^4-(3-phenyloxetan-3-yl)-2-(trifluoromethyl)benzene-1,4-diamine], the results for the IC50 at 5-LOX and on 12-LOX were 0.57 µM and 0.32 µM, respectively.
The like results for `Fc1ccc(Nc2ccc(NCC3(Cn4cncn4)COC3)c(OC(F)(F)F)c2)cc1` [SS20308-0319-01, N^1-((3-((1H-1,2,4-triazol-1-yl)methyl)oxetan-3-yl)methyl)-N^4-(4-fluorophenyl)-2-(trifluoromethoxy)benzene-1,4-diamine] were, in that order, 0.15 µM and 0.05 µM.
With `Fc1ccc(Nc2ccc(NCC3(CN4CCCC4)COC3)c(C(F)(F)F)c2)cc1` [SS20308-0320-01, N^4-(4-fluorophenyl)-N^1-((3-(pyrrolidin-1-ylmethyl)oxetan-3-yl)methyl)-2-(trifluoromethyl)benzene-1,4-diamine], the IC50 worked out at 0.06 µM at 5-LOX and 0.08 µM on 12-LOX.
With `FC(F)(F)c1cc(Nc2ccc(Cl)cc2)ccc1NCC1(Cn2cncn2)COC1` [SS20308-0322-01, N^1-((3-((1H-1,2,4-triazol-1-yl)methyl)oxetan-3-yl)methyl)-N^4-(4-chlorophenyl)-2-(trifluoromethyl)benzene-1,4-diamine], the IC50 on 5-LOX and on 12-LOX was 0.05 µM throughout.
For the molecule `Cc1cc(Nc2ccc(Cl)c(F)c2)ccc1NCC1(CN2CCOCC2)COC1` [SS20308-0323-01, N^4-(4-chloro-3-fluorophenyl)-2-methyl-N^1-((3-(morpholinomethyl)oxetan-3-yl)methyl) benzene-1,4-diamine], the concentration for half-maximal inhibition (IC50) at 5-LOX was determined as 0.05 µM; at 12-LOX, 0.02 µM.
Consider `Cc1cc(Nc2ccc(Cl)c(F)c2)ccc1NCC1(CN2CCCC2)COC1` [SS20308-0324-01, N^4-(4-chloro-3-fluorophenyl)-2-methyl-N^1-((3-(pyrrolidin-1-ylmethyl)oxetan-3-yl)methyl)benzene-1,4-diamine], for which the 50% inhibitory concentration (IC50) at 5-LOX was 0.15 µM and 0.44 µM; on 12-LOX, 0.03 µM.
For `FC(F)(F)C(Nc1ccc(NCCCN2CCOCC2)c(C2CCCCC2)c1)c1ccccc1` (stereo not drawn) [SS20308-0325-01, 2-cyclohexyl-N^1-(3-morpholinopropyl)-N^4-(2,2,2-trifluoro-1-phenylethyl)benzene-1,4-diamine], the half-inhibitory concentration (IC50) at 5-LOX is 0.04 µM; at 12-LOX, 0.03 µM.
On to `Cc1cc(Nc2ccc(Cl)c(F)c2)ccc1NCC1(Cn2cccn2)COC1` [SS20308-0327-01, N1-((3-((1H-pyrazol-1-yl)methyl)oxetan-3-yl)methyl)-N4-(4-chloro-3-fluorophenyl)-2-methylbenzene-1,4-diamine], for which the figures for the 50% inhibitory concentration (IC50) on 5-LOX and at 12-LOX were 0.07 µM and 0.04 µM, respectively.
For the molecule `Cc1cc(Nc2ccc(Cl)c(F)c2)ccc1NCC1(Cn2ccnc2)COC1` [SS20308-0328-01, N^1-((3-((1H-imidazol-1-yl)methyl)oxetan-3-yl)methyl)-N^4-(4-chloro-3-fluorophenyl)-2-methylbenzene-1,4-diamine], the IC50 on 5-LOX worked out at 0.04 µM; on 12-LOX, 0.03 µM.
